Test results as given in patent US7524816B2, “Peptides and supported peptides for treating skin diseases” (Genencor International, Inc., priority 2003, dated 2009).
Positions of bridges follow the written chain, without caps; N, C: chain ends. Residues, ends and D or L forms follow the SMILES beside them.

T1: Human VEGF165 (Homo sapiens, UniProt P15692)
T1 construct: purchased Biosource
T1 sequence (P15692 27-191 isoform P15692-4): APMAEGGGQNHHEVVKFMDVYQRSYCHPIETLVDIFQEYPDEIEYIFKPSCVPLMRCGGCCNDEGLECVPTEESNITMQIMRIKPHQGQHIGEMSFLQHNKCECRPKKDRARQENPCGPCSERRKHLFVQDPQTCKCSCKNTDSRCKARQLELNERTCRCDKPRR

B1: BBI-VEGF1: Bowman-Birk inhibitor fusion with one binding loop replaced by anti-VEGF peptide (protein)
chain: DDESSKPCCDQCACYNLYGWTCRCSDMRLNSCHSACKSCICALSYPAQCFCVDITDFCYEPCKPSEDDKEN
modifications: synthetic BBI-VEGF1 fusion protein

How the values were obtained:
[1] = test system: human umbilical vein endothelial cells (HUVEC); assay: In vitro HUVEC proliferation assay (MTS) of hVEGF inhibitory peptides; assay type: cell-based; conditions: 10 ng/ml VEGF, 48 hrs
Protocol: In this Example, experiments conducted to determine the anti-proliferative activity of anti-VEG peptides are described. The antiproliferative activity of VEGF inhibitory peptides was determined using human umbilical vein endothelial cells (HUVEC) as follows. An early passage (less than six) of HUVEC was seeded in 96-well plates at 5000 cells per well and starved for 18 hrs in 200 μl EBM medium (Cambrex) without growth factors and supplemented with 0.5% FBS, at 37° C. with 5% CO2. The medium was replaced with 180 μl of growth medium containing EBM medium with 5% fetal bovine serum and 1% DMSO. Then, 20 μl of VEGF preincubated for one hour with varying peptide concentrations (the final DMSO concentration of all the wells was 1%) were added to the wells for a final VEGF concentration of 10 ng/ml. Human VEGF antibody (R & D Systems) was used as a positive control. Cells with 0.31 to 20 ng/ml concentrations of VEGF alone in the growth medium were used to construct a standard growth curve. The cells were further incubated for 48 hrs, and the cell proliferation was measured using an MTS assay (CellTiter 96 Aqueous One Solution Cell Proliferation Assay Kit; Promega). Then, 40 μl of the MTS tetrazolium solution was added to each well and after 3 and 4 hours incubation, the plates were read at 490 nm. The absorption of media alone was subtracted from all data points.

[2] = Repeat insult patch test (RIPT) on human skin; assay type: in vivo; conditions: 0.5% (w/v) in deionized water/butylene glycol; approximately 0.2 mL; 200 human volunteers
Protocol: In this Example, experiments conducted to determine the patch test result for anti-VEGF peptides are described. Samples of the aVEGF peptide CK37281 dosed at 0.5% (w/v) were formulated in a base formulation containing deionized water/butylene glycol. Approximately 0.2 mL of the formulation was applied to 200 human volunteers in a repeated insult patch test according to procedures designed by Clinical Research Laboratories, Inc. (Piscataway, N.J.).

Human VEGF165 [3] = molecular target: T1, Human VEGF165; assay: BIAcore surface plasmon resonance binding analysis of VEGF binding peptides
Protocol: FIG. 3 provides results of a BIACORE binding analysis of VEGF binding peptides. Binding curves were obtained as described in the Examples. […]
In this Example, experiments conducted to assess the affinities of the peptides for VEGF are described. Affinities of the peptides for VEGF were measured using a BIAcore™-3000 surface plasmon resonance system (Biacore). A CM5 sensor chip was conditioned with 50 mM NaOH, 0.1% HCl, 0.1% SDS, and 0.08% H3PO4, and activated for covalent coupling of […] using N-ethyl-N′-(3-dimethylaminopropyl)-carbodiimide hydrochloride (EDC) and N-hydroxysuccinimide (NHS) according to the supplier's instructions (Biacore). Human VEGF165 (Biosource) was diluted to 5 μg/ml in 20 mM sodium acetate, pH 4.8 and injected at a flow rate of 2 μl/min to achieve approximately 1000 to 6000 response units (RU) of coupled protein. TNF[…] (human TNF[…], Biosource, Int., Camarillo, Calif.) was similarly coupled to the CM5 sensor chip to approximately 850 to 3500 RU in the reference lane. A solution of 1 M ethanolamine was injected as a blocking agent. In some experiments, an additional solution of EDC and NHS were injected to improve baseline stability and a solution of 1 M ethanolamine injected as a blocking agent. The reference lane is activated with EDC and NHS and blocked with ethanolamine.
Peptides were synthesized using standard FMOC chemistry, purified by reverse phase HPLC to >95% purity (SynPep), and stored at 10 mg/mL in DMSO. For kinetic measurements, twofold serial diluted peptides in HBS-EP buffer, 0.01 M HEPES pH 7.4, 0.15 M NaCl, 3 mM EDTA, 0.005% Surfactant P20 (Biacore), were injected at 25° C. at a flow rate of 20 μL/min. Two-fold serial diluted DMSO samples and buffer samples were also injected for background subtraction. Kinetic parameters were calculated using BIAevaluation 3.1 software.

Human VEGF165 [4] = molecular target: T1, Human VEGF165; assay: BIAcore binding analysis of BBI-VEGF constructs; conditions: trypsin and chymotrypsin coupled in remaining lanes
Protocol: In this Example, experiments conducted to determine the binding affinity of constructs produced as indicated in Example 9 are described. Affinities of BBI-VEGF constructs for VEGF were measured using BLAcore-3000 surface plasmon resonance (Biacore). A CM5 sensor chip was conditioned with 50 mM NaOH and activated for covalent coupling of VEGF using N-ethyl-N′-3-dimethylaminopropyl)-carbodiimide hydrochloride (EDC) and N-hydroxysuccinimide (NHS) according to the supplier's instructions (Biacore). VEGF (human VEGF165, Biosource) was diluated to 5 μg/mL in 20 mM sodium acetate, pH 4.8, and injected at a flow rate of 2 μL/min to achieve approximately 1000 to 6000 response units (RU) of coupled protein. Trypsin and chymotrypsin were similarly coupled to the CM5 sensor chip to approximately 850 to 3500 RU in remaining lanes. A solution of 1 M ethanolamine was injected as a blocking agent.

[5] = two state reaction model with conformation change

Row | Molecule | IC50 antiproliferative activity [1] | dermal irritation or sensitization [2] | ka2 (Human VEGF165 [3]; [5]) [s⁻¹] | kd1 (Human VEGF165 [3]; [5]) [s⁻¹] | kd1 (Human VEGF165 [3]; 1:1 Langmuir binding fit, 1000 RU VEGF, 850 RU TNF) [s⁻¹] | binding to VEGF (Human VEGF165 [4]) | binding to VEGF (Human VEGF165 [4]; listed as BBI-VEGF)
1 | CC(C)C[C@@H]1NC(=O)[C@H](CC(N)=O)NC(=O)[C@H](Cc2ccc(O)cc2)NC(=O)[C@@H](NC(=O)[C@H](C)N)CSSC[C@@H](C(=O)NCC(=O)NCC(=O)NCC(=O)O)NC(=O)[C@H]([C@@H](C)O)NC(=O)[C@H](Cc2c[nH]c3ccccc23)NC(=O)CNC(=O)[C@H](Cc2ccc(O)cc2)NC1=O [CK37281] (H-ACYNLYGWTCGGG-OH; disulfide 2-10 (inferred); N-terminus and C-terminus assumed) | in the micromolar range | no dermal irritation or sensitization | 0.0015 | 0.0122 | – | – | –
2 | CC(C)C[C@@H]1NC(=O)[C@H](CC(N)=O)NC(=O)[C@@H](NC(=O)[C@H](C)N)CSSC[C@@H](C(=O)NCC(=O)NCC(=O)NCC(=O)O)NC(=O)[C@H](Cc2c[nH]c3ccccc23)NC(=O)[C@H](Cc2ccccc2)NC(=O)[C@H](Cc2c[nH]cn2)NC(=O)[C@@H]2CCCN2C(=O)[C@H](Cc2c[nH]c3ccccc23)NC1=O [CK37283, NLWPHFW] | in the micromolar range | – | 0.00634 | 0.318 | – | – | –
3 | CC[C@H](C)[C@@H]1NC(=O)[C@H](CC(=O)O)NC(=O)[C@@H](NC(=O)[C@H](CC(N)=O)NC(=O)[C@@H]2CCCN2C(=O)[C@H](CCC(=O)O)NC(=O)[C@@H](N)C(C)C)CSSC[C@@H](C(=O)N[C@@H](Cc2ccccc2)C(=O)N[C@@H](CCC(=O)O)C(=O)N[C@@H](CCCNC(=N)N)C(=O)N[C@@H](CC(C)C)C(N)=O)NC(=O)[C@H](CCC(=O)O)NC(=O)[C@H](Cc2c[nH]c3ccccc23)NC(=O)[C@H](CCC(=O)O)NC(=O)[C@H](Cc2c[nH]c3ccccc23)NC(=O)[C@H](CCSC)NC(=O)[C@H](C(C)C)NC(=O)[C@H](Cc2c[nH]cn2)NC1=O [v114, reference compound] (H-VEPNCDIHVMWEWECFERL-NH2; disulfide 5-15; N-terminus and C-terminus assumed) | – | – | – | – | 0.167 | – | –
4 | B1 | – | – | – | – | – | binds specifically to VEGF | Selective binding affinity to VEGF
